Source: patent US20150283110A1, “COMPOSITION FOR PREVENTING OR TREATING HEART DISEASE” (AMOREPACIFIC CORPORATION, priority 2012, published 2015)

Experiments:
SIRT1 gene [1] = test: SIRT1 gene expression promoting effect in cardiomyocytes (RT-PCR); assay type: cell-based; set-up: change of the expression of the SIRT1 gene: dose or concentration left out as unconfirmed; details: rat cardiomyocytes, FIG. 1; for change of the expression of the SIRT1 gene: serum-free, 24 hours, DMSO control
Method: The SIRT1 gene expression promoting effect of the two optical isomers of syringaresinol in rat cardiomyocytes was evaluated as follows.
The heart of a 1-2 day old Sprague-Dawley rat was excised, immersed in an HBSS solution, cut into pieces with scissors and kept overnight in a trypsin/EDTA solution inside a shaker at 4° C. The next day, the trypsin solution was discarded and a 10% FCS/DMEM solution was added to inhibit trypsin activity. After discarding the FCS/DMEM, adding a collagenase solution and keeping in a shaking bath at 37° C. for about 3 minutes, only the supernatant was collected in a conical tube. This procedure was repeated three times. After centrifuging the collected solution at 750 rpm for 5 minutes, the resulting pellets were resuspended in a 10% FCS/DMEM solution, transferred to a culture flask and then incubated at 37° C. for 75 minutes. The suspension was transferred to a fresh culture flask, incubated again for 75 minutes, transferred to a conical tube and then plated after cell counting. The plated cells were cultured in a 10% FCS/DMEM medium for 3-4 days until confluence and the medium was treated respectively with the (+)-syringaresinol (50 mM) obtained in Example and with the (−)-syringaresinol (50 mM) obtained in Comparative Example for 24 hours after removing the serum. The control group was treated with DMSO. The treated cells were washed 2 times with cold PBS and RNA was extracted therefrom using the TRIzol reagent (Invitrogen). cDNA was synthesized from the extracted and quantitated 1 μg/μL RNA using a reverse transcription system (Promega). The expression profile of the SIRT1 and GAPDH genes was measured using the synthesized cDNA and primers and probes predesigned for the genes (Applied Biosystems; SIRT1, Hs01009006_m1; GAPDH, Hs99999905_m1). PCR reaction and analysis were conducted using the Rotor-Gene 3000 system (Corbett Research, Sydney, Australia).

cardiomyocytes = test: Cardiomyocyte protection from cell death induced by reactive oxygen species (H2O2, MTT); assay type: cell-based, rat; details: 250 mM H2O2 2 hours, then 5, 20 or 50 mM for 24 hours; MTT OD 540 nm; FIGS. 2 and 3
Method: Cardiomyocytes isolated and cultured according to the substantially same method as described in Test Example 1 were treated with 250 mM hydrogen peroxide (H2O2) for 2 hours in a serum-free medium to induce cell death by reactive oxygen species. 2 hours later, after removing the medium and washing with PBS, the cells were treated with 5, 20 or 50 mM (+)-syringaresinol and (−)-syringaresinol for 24 hours. After adding a 3-[4,5-dimethylthiazolyl]-2,5-diphenyltetrazolium bromide (MTT, Sigma) solution to the cells and incubating at 37° C. for 4 hours, dimethyl sulfoxide was added and the optical density (OD) of the formed formazan dye was measured at a wavelength of 540 nm using an ELISA reader (Thermo Max, Molecular Devices Co.).

SIRT1 gene [2] = test: SIRT1 expression in vascular endothelial cells during induced aging (RT-PCR); assay type: cell-based; details: human vascular endothelial cells, 50 mM every other day, FIG. 8
Method: Human vascular endothelial cells purchased from Lonza (Walkersville, Md., USA) were cultured using the endothelial cell growth medium EGM-2 SingleQuots (Lonza) in a 5% CO2 incubator until 70% confluence. […] The population doubling level (PDL) was calculated according to the following equation for each generation until the cell growth was stopped. The PDL value is higher in aged cells.
14 PDL cells were treated with syringaresinol obtained from ginseng berry [syn(GB)], synthesized (+)-syringaresinol [syn(+)], 1:1 [syn(+/−1:1)], 2:1 [syn(+/−2:1)], 5:1 [syn(syn(+/−5:1))] or 10:1 [syn(syn(+/−10:1))] mixture of synthesized (+)-syringaresinol and synthesized (−)-syringaresinol or syringaresinol obtained from eleuthero [syn(eleuthero)] at a concentration of 50 mM every other day while inducing aging to 40 PDL cells. The cells of a negative control group were treated with DMSO of 1/1000 of the volume of the medium. The cells treated with each sample were washed 2 times with cold PBS and RNA was extracted using the TRIzol reagent (Invitrogen). cDNA was synthesized from the extracted RNA (1 μg/μL) using a reverse transcription system (Promega). Subsequently, the expression profile of the SIRT1 and GAPDH genes was measured using the synthesized cDNA and primers and probes predesigned for the genes (Applied Biosystems; SIRT1, Hs01009006_m1; GAPDH, Hs99999905_m1). […]

| Compound | change of the expression of the SIRT1 gene (SIRT1 gene [1]) | effect of increasing the SIRT1 expression compared with syringaresinol obtained from ginseng berry (SIRT1 gene [1]) | death of cardiomyocytes induced by reactive oxygen species (cardiomyocytes) | SIRT1 expression compared with cells treated with syringaresinol obtained from ginseng berry (SIRT1 gene [2]) | SIRT1 expression as compared to the cells treated only with DMSO (SIRT1 gene [2]; 14 PDL to 40 PDL) |
| --- | --- | --- | --- | --- | --- |
| COc1cc(C2OCC3C(c4cc(OC)c(O)c(OC)c4)OCC23)cc(OC)c1O (centres unmarked) [syringaresinol obtained from ginseng berry] | increase the SIRT1 expression in cardiomyocyte in concentration-dependent manners |  |  |  |  |
| COc1cc([C@H]2OC[C@H]3[C@@H]2CO[C@@H]3c2cc(OC)c(O)c(OC)c2)cc(OC)c1O [(+)-syringaresinol, (8R,8′R)-(+)-syringaresinol] | increase the SIRT1 expression in cardiomyocyte in concentration-dependent manners | better effect of increasing the SIRT1 expression than the syringaresinol obtained from ginseng berry | suppressed the death of the cardiomyocytes induced by the reactive oxygen species in a concentration-dependent manner | higher SIRT1 expression than the cells treated with the syringaresinol obtained from ginseng berry | ≥ 4 times |
| COc1cc(C2OCC3C(c4cc(OC)c(O)c(OC)c4)OCC23)cc(OC)c1O (single isomer, unassigned; (-)) [(−)-syringaresinol, reference compound] | cannot increase the expression of the SIRT1 gene |  | promoted cell death |  |  |
